Common to all, as to format: cell-based
One assay concerns AML cell line HL-60. Nature of the assay: Cell viability (CellTiterGlo, 3 days), single agents and combination, in HL-60. Particulars: Homo sapiens, 72 h; HL-60, single agent, 3 days incubation, CTG signal.
In the next assay the test system is AML cell line EOL-1. Nature of the assay: Cell viability (CellTiterGlo, 3 days), single agents and combination, in EOL-1. As to conditions: Homo sapiens, EOL1, 72 h; EOL-1, single agent, 3 days incubation, CTG signal.
A further assay deals with AML cell line OCI-AML3. Nature of the assay: Cell viability (CellTiterGlo, 3 days), single agents and combination, in OCI-AML3. Particulars: Homo sapiens, OCI-AML-3, 72 h; OCI-AML3, single agent, 3 days incubation, CTG signal.
Another assay concerns AML cell line MV4;11. The assay is described as follows: Cell viability (CellTiterGlo, 3 days), single agents and combination, in MV4;11. As to conditions: Homo sapiens, 72 h; MV4;11, single agent, 3 days incubation, CTG signal.

Molecules are shown by their SMILES. pIC50: −log10 of the molar value.

As for `Nc1ncn([C@@H]2O[C@H](CO)[C@@H](O)[C@H]2O)c(=O)n1` [5-azacitidine, azacitidine], the pIC50 was less than 5.00 in the assay on AML cell line HL-60, 6.73 with AML cell line EOL-1, 5.15 in the assay on AML cell line OCI-AML3 and 6.16 in the assay on AML cell line MV4;11.
For `Cc1c(N(C(=O)c2cc(-c3cc(Cl)ccc3C(=O)N3Cc4ccccc4C[C@H]3CN3CCOCC3)n(C)c2C)c2ccc(O)cc2)cc(C#N)n1C` [Compound A, 5-(5-chloro-2-{[(3S)-3-(morpholin-4-ylmethyl)-3,4-dihydroisoquinolin-2(1H)-yl]carbonyl}phenyl)-N-(5-cyano-1,2-dimethyl-1H-pyrrol-3-yl)-N-(4-hydroxyphenyl)-1,2-dimethyl-1H-pyrrole-3-carboxamide], the pIC50 was 5.51 with AML cell line HL-60, 7.74 in the assay with AML cell line EOL-1, 5.24 with AML cell line OCI-AML3 and 8.52 with AML cell line MV4;11.

The values are drawn from patent US20230270748A1, “COMBINATION OF A BCL-2 INHIBITOR AND A HYPOMETHYLATING AGENT FOR TREATING CANCERS, USES AND PHARMACEUTICAL COMPOSITIONS THEREOF” (LES LABORATOIRES SERVIER, priority 2020, published 2023).
